In patent publication US12662476B2, “Herbicidal thiazole compounds” (SYNGENTA CROP PROTECTION AG, priority 2019, dated 2026):

What was measured:
Format in all cases: in vivo
[1] = system: Echinochloa crus-galli (ECHCG); assay: Pre-emergence herbicidal glasshouse test; conditions: sprayed after one day cultivation, 250 g/ha, evaluated after 13 days, five-point scale
Description: (§1) Seeds of a variety of test species are sown in standard soil in pots Amaranthus retoflexus (AMARE), Echinochloa crus-galli (ECHCG), Setaria faberi (SETFA)). After cultivation for one day (pre-emergence) or after 8 days cultivation (post-emergence) under controlled conditions in a glasshouse (at 24/16° C., day/night; 14 hours light; 65% humidity), the plants are sprayed with an aqueous spray solution derived from the formulation of the technical active ingredient in acetone/water (50:50) solution containing 0.5% Tween™ 20 (polyoxyethylene sorbitan monolaurate, CAS RN 9005-64-5). Compounds are applied at 250 g/ha unless otherwise stated. The test plants are then grown in a glasshouse under controlled conditions in a glasshouse (at 24/16° C., day/night; 14 hours light; 65% humidity) and watered twice daily. After 13 days for pre- and post-emergence, the test is evaluated for the percentage damage caused to the plant. The biological activities are shown in the following table on a five-point scale (5=81-100%; 4=61-80%; 3=41-60%; 2=21-40%; 1=0-20%).

[2] = system: Amaranthus retoflexus (AMARE); assay: Pre-emergence herbicidal glasshouse test; conditions: sprayed after one day cultivation, 250 g/ha, evaluated after 13 days, five-point scale
Description: as §1

Setaria faberi (SETFA) [3] = assay: Pre-emergence herbicidal glasshouse test; conditions: sprayed after one day cultivation, 250 g/ha, evaluated after 13 days, five-point scale
Description: as §1

[4] = system: Echinochloa crus-galli (ECHCG); assay: Post-emergence herbicidal glasshouse test; conditions: sprayed after 8 days cultivation, 250 g/ha, evaluated after 13 days, five-point scale
Description: as §1

[5] = system: Amaranthus retoflexus (AMARE); assay: Post-emergence herbicidal glasshouse test; conditions: sprayed after 8 days cultivation, 250 g/ha, evaluated after 13 days, five-point scale
Description: as §1

Setaria faberi (SETFA) [6] = assay: Post-emergence herbicidal glasshouse test; conditions: sprayed after 8 days cultivation, 250 g/ha, evaluated after 13 days, five-point scale
Description: as §1

SMILES | percentage damage caused to the plant, ECHCG [1] | percentage damage caused to the plant, AMARE [2] | percentage damage caused to the plant, SETFA (Setaria faberi (SETFA) [3]) | percentage damage caused to the plant, ECHCG [4] | percentage damage caused to the plant, AMARE [5] | percentage damage caused to the plant, SETFA (Setaria faberi (SETFA) [6])
FC(F)c1cc(-c2ccccc2Oc2ncc(C(F)F)s2)on1 [Compound 1.021] | 4 (4=61-80%) | 3 (3=41-60%) | 4 (4=61-80%) | 1 (1=0-20%) | 4 (4=61-80%) | 3 (3=41-60%)
FC(F)c1cc(-c2c(Cl)cccc2Oc2ncc(C(F)F)s2)on1 [Compound 1.019] | 5 (5=81-100%) | 2 (2=21-40%) | 5 (5=81-100%) | 4 (4=61-80%) | 4 (4=61-80%) | 5 (5=81-100%)
FC(F)c1cc(-c2c(Br)cccc2Oc2nc(C(F)(F)F)cs2)on1 [Compound 1.034] | 3 (3=41-60%) | 4 (4=61-80%) | 5 (5=81-100%) | 3 (3=41-60%) | 4 (4=61-80%) | 4 (4=61-80%)
Fc1cccc(Oc2nc(C(F)F)c(Cl)s2)c1-c1cc(C(F)F)no1 [Compound 1.035] | 1 (1=0-20%) | 1 (1=0-20%) | 1 (1=0-20%) | 1 (1=0-20%) | 2 (2=21-40%) | 1 (1=0-20%)
Cc1cccc(-c2cc(C(F)F)no2)c1Oc1ncc(Cl)s1 [Compound 1.011] | 4 (4=61-80%) | 4 (4=61-80%) | 1 (1=0-20%) | 3 (3=41-60%) | 2 (2=21-40%) | 3 (3=41-60%)
FC(F)c1cc(-c2c(Cl)cccc2Oc2ncc(Cl)s2)on1 [Compound 1.022] | 5 (5=81-100%) | 5 (5=81-100%) | 5 (5=81-100%) | 5 (5=81-100%) | 5 (5=81-100%) | 5 (5=81-100%)
Cc1cnc(Oc2cccc(F)c2-c2cc(C(F)F)no2)s1 [Compound 1.005, 3-(difluoromethyl)-5-[2-fluoro-6-(5-methylthiazol-2-yl)oxy-phenyl]isoxazole] | 3 (3=41-60%) | 5 (5=81-100%) | 4 (4=61-80%) | 4 (4=61-80%) | 4 (4=61-80%) | 4 (4=61-80%)
Fc1cccc(Oc2ncc(Cl)s2)c1-c1cc(C(F)F)no1 [Compound 1.006] | 5 (5=81-100%) | 5 (5=81-100%) | 5 (5=81-100%) | 4 (4=61-80%) | 5 (5=81-100%) | 5 (5=81-100%)
